Measurements: PubChem BioAssay AID588477 (NMMLSC, 2011)
Activity calls are given as the source filed them.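 How the source made its calls: active means valid curve fit with half-effect dose at most 10 µM and total binding change across doses of 30 points or more; inactive means the rest.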

Tests used:
Cdc42 wt = assay: small GTPase nucleotide-binding inhibition, multiplex panel – biochemical, round 1 SAR, Mg buffer, multiplex flow cytometry, selectivity assay for Cdc42 probe extension project, SAR follow-up (AID 588477); settings: GST-GTPase beads, Bodipy-GTP binding
[1] = as above; settings: GST-GTPase beads, Bodipy-GTP binding, Cdc42 constitutively active

Structure (SMILES)	percent response (remaining binding) (Cdc42 wt; at 100 µM (top of the series))	EC50 [1] [µM]	EC50 (Cdc42 wt) [µM]	percent response (remaining binding) ([1]; at 100 µM (top of the series))
O=C(C#Cc1ccccc1)c1cccc([N+](=O)[O-])c1	inactive	2.68		
COc1ccc(C2CC(c3ccccc3)=NN2c2ccc(S(N)(=O)=O)cc2)cc1 (stereo unspecified)		3.69	2.41	
NS(=O)(=O)c1ccc(N2N=C(c3ccccc3)CC2c2ccccc2)cc1 (stereo unspecified)			7.26	inactive
